≈ marks a conversion by molar mass, not a printed value. Like-named read-outs stand apart in the source and are kept apart here.
Experiments:
[1] = system: RXF 393; assay: NCI single-dose growth inhibition screen; format: cell-based; settings: Homo sapiens; Renal Cancer RXF 393; single dose 10^−5 M
[2] = system: SR; assay: NCI single-dose growth inhibition screen; format: cell-based; settings: Homo sapiens; Leukemia SR; single dose 10^−5 M
[3] = system: A549/ATCC; assay: NCI single-dose growth inhibition screen; format: cell-based; settings: Homo sapiens; Non-Small Cell Lung Cancer A549/ATCC; single dose 10^−5 M
[4] = system: NCI-H322M; assay: NCI single-dose growth inhibition screen; format: cell-based; settings: Homo sapiens; Non-Small Cell Lung Cancer NCI-H322M; single dose 10^−5 M
[5] = system: T-47D; assay: NCI single-dose growth inhibition screen; format: cell-based; settings: Homo sapiens, T47D; Breast Cancer T-47D; single dose 10^−5 M
[6] = system: P. aeruginosa ATCC 27,853; assay: Antibacterial screening, agar cup diffusion method; format: cell-based; settings: Pseudomonas aeruginosa, ATCC27; Gram –ve strain; read-out: Minimum inhibitory concentrations (MIC, µM) P. aeruginosa ATCC 27,853
Protocol: (§1) Anti-bacterial activity of the recently synthesized compounds 3a-k was evaluated at AUMC (Assiut University Mycological Centre), Assiut, Egypt. Assays were done against Gram-negative strains of K. pneumoniae (ATCC 100310, E. coli (ATCC 25922), Pseudomonas aeruginosa (ATCC 27853) and the Gram-positive S. aureus (ATCC 6538) strain utilizing standard agar cup diffusion method. The isolates from the four bacterial species examined were kept in TSB (Trypticase Soya Broth, Becton and Dickinson) with 10% glycerol at -70 °C and then subcultured on TSA (Trypticase Soya Agar, Becton and Dickinson) and TSB for 24 h at 37 °C former to inoculation. Bacterial isolates were then plated on sterile petri plates with 1 × 10^8 CFU/mL (0.5 McFarland turbidity) and 20 mL of Mueller Hinton Agar media (Oxoid) was then loaded. To ensure that the microorganisms were evenly dispersed, the plates were gently rotated before being left to harden on a level surface. Four equally spaced spherical-shaped wells (10 mm diameter) were painstakingly drilled using a sterilized cork bore after media solidification. All tested compounds under test underwent two-fold serial dilutions in a sequential manner. Three replications of 100 µL of each concentration were added to a well using a micropipette. Plates were then incubated for 24-hour at 37 °C. The average of the inhibition zones was then calculated. To determine the MICs, the natural logarithm of each diluted test substance’s concentration was plotted against the average area of the related inhibition zone. Following that, a regression line was created and the intercept on the ‘ln concentration” axis was determined, and the antilogarithm was calculated to indicate the MIC value[34],[63].

[7] = system: MDA-MB231; assay: NCI single-dose growth inhibition screen; format: cell-based; settings: Homo sapiens, MDA-MB-231; Breast Cancer MDA-MB231; single dose 10^−5 M
[8] = system: A498 renal cancer cell line; assay: cells; settings: Homo sapiens; for viability at 0.4 µM / viability at 1.6 µM / viability at 25 µM / viability at 100 µM: A498
[9] = system: PC-3; assay: NCI single-dose growth inhibition screen; format: cell-based; settings: Homo sapiens; Prostate Cancer PC-3; single dose 10^−5 M
[10] = system: MOLT-4; assay: NCI single-dose growth inhibition screen; format: cell-based; settings: Homo sapiens; Leukemia MOLT-4; single dose 10^−5 M
[11] = system: UACC-257; assay: NCI single-dose growth inhibition screen; format: cell-based; settings: Homo sapiens; Melanoma UACC-257; single dose 10^−5 M
[12] = system: CAKI-1; assay: NCI single-dose growth inhibition screen; format: cell-based; settings: Homo sapiens; Renal Cancer CAKI-1; single dose 10^−5 M
[13] = system: E. coli ATCC 25,922; assay: Antibacterial screening, agar cup diffusion method; format: cell-based; settings: read-out: Minimum inhibitory concentrations (MIC, µM) E. coli ATCC 25,922
Protocol: as §1

[14] = system: SK-MEL-5; assay: NCI single-dose growth inhibition screen; format: cell-based, human; settings: Homo sapiens, SK-MEL-5, Melanoma SK-MEL-5; single dose 10^−5 M
[15] = system: EKVX; assay: NCI single-dose growth inhibition screen; format: cell-based; settings: Homo sapiens; Non-Small Cell Lung Cancer EKVX; single dose 10^−5 M
[16] = system: MDA-MB-435; assay: NCI single-dose growth inhibition screen; format: cell-based; settings: Homo sapiens; Melanoma MDA-MB-435; single dose 10^−5 M
[17] = system: OVCAR-8; assay: NCI single-dose growth inhibition screen; format: cell-based; settings: Homo sapiens; Ovarian Cancer OVCAR-8; single dose 10^−5 M
[18] = system: RPMI-8226; assay: NCI single-dose growth inhibition screen; format: cell-based; settings: Homo sapiens; Leukemia RPMI-8226; single dose 10^−5 M
[19] = system: NCI-H460; assay: NCI single-dose growth inhibition screen; format: cell-based; settings: Homo sapiens; Non-Small Cell Lung Cancer NCI-H460; single dose 10^−5 M
[20] = system: IGROV1; assay: NCI single-dose growth inhibition screen; format: cell-based; settings: Homo sapiens, IGROV-1; Ovarian Cancer IGROV1; single dose 10^−5 M
[21] = system: ACHN; assay: NCI single-dose growth inhibition screen; format: cell-based; settings: Homo sapiens; Renal Cancer ACHN; single dose 10^−5 M
[22] = system: M14; assay: NCI single-dose growth inhibition screen; format: cell-based; settings: Homo sapiens; Melanoma M14; single dose 10^−5 M
Protocol: Following the guidelines established by the drug evaluation department of the National Cancer Institute (NCI), USA, all target compounds 3a–l were examined against 60 cancer cell lines at a single concentration of 10 µM.
The anti-cancer potential of the tested compounds was evaluated at the National cancer institute (NCI), USA, against 9 panels of 60 various cell lines derived from nine human tumours available usually at NCI library. The procedures for the screening were described in details in NCI website (dttp://www.dtp.nci.nih.gov.) and were done according to NCI protocols[60] . The anticancer screening was carried out at single dose of 10^−5 M, NCI, Bethesda, USA. The results obtained as growth inhibition (%).

[23] = system: DU-145; assay: NCI single-dose growth inhibition screen; format: cell-based; settings: Homo sapiens; Prostate Cancer DU-145; single dose 10^−5 M
[24] = system: human melanoma LOX IMVI; assay: cells
[25] = system: UO-31; assay: NCI single-dose growth inhibition screen; format: cell-based, human; settings: single dose 10^−5 M; for inhibition at 10 µM: Homo sapiens, UO-31, Renal Cancer UO-31
[26] = system: SF-539; assay: NCI single-dose growth inhibition screen; format: cell-based; settings: Homo sapiens; CNS Cancer SF-539; single dose 10^−5 M
[27] = system: MALME-3 M; assay: NCI single-dose growth inhibition screen; format: cell-based; settings: Homo sapiens; Melanoma MALME-3 M; single dose 10^−5 M
[28] = system: SF-268; assay: NCI single-dose growth inhibition screen; format: cell-based; settings: Homo sapiens; CNS Cancer SF-268; single dose 10^−5 M
[29] = system: LOX IMVI; assay: NCI single-dose growth inhibition screen; format: cell-based, human; settings: Melanoma LOX IMVI, single dose 10^−5 M; for inhibition at 10 µM: Homo sapiens, LOX IMVI
[30] = system: BT-549; assay: NCI single-dose growth inhibition screen; format: cell-based; settings: Homo sapiens; Breast Cancer BT-549; single dose 10^−5 M
[31] = system: NCI-H522; assay: NCI single-dose growth inhibition screen; format: cell-based; settings: Homo sapiens; Non-Small Cell Lung Cancer NCI-H522; single dose 10^−5 M
[32] = system: HS 578T; assay: NCI single-dose growth inhibition screen; format: cell-based; settings: Homo sapiens; Breast Cancer HS 578T; single dose 10^−5 M
[33] = Escherichia coli, ATCC25, Gram –ve strain

O=C(O)c1cn(C2CC2)c2cc(N3CCN(C(=O)CCCN4C(=O)S/C(=C\c5ccc([N+](=O)[O-])cc5)C4=O)CC3)c(F)cc2c1=O [3k]
inhibition at 10 µM [1]: 47.9% | inhibition at 10 µM [2]: 9.7% | inhibition at 10 µM [3]: 5.5% | inhibition at 10 µM [4]: < 0% | inhibition at 10 µM [5]: < 0% | melting point: 299 to 300 °C | MIC [6]: > 20 µM | inhibition at 10 µM [7]: 11.2% | viability at 0.4 µM [8]: 103% | viability at 1.6 µM [8]: 93.1% | viability at 25 µM [8]: 72.6% | viability at 100 µM [8]: 60.5% | IC50 ([8]; A498, read-out: In vitro cytotoxicity (IC50) A498 cell line (µM ± SEM)): > 150 µM | inhibition at 10 µM [9]: < 0% | inhibition at 10 µM [10]: < 0% | inhibition at 10 µM [11]: < 0% | inhibition at 10 µM [12]: 19.5% | MIC [13, 33]: 0.25 µM (≈ 0.162 µg/mL) | inhibition at 10 µM [14]: 0.8% | inhibition at 10 µM [15]: 24.4% | inhibition at 10 µM [16]: < 0% | inhibition at 10 µM [17]: < 0% | inhibition at 10 µM [18]: 8.7% | inhibition at 10 µM [19]: < 0% | inhibition at 10 µM [20]: 15.9% | inhibition at 10 µM [21]: 0.1% | inhibition at 10 µM [22]: < 0% | inhibition at 10 µM [23]: 7% | viability at 0.4 µM [24]: 110% | viability at 1.6 µM [24]: 102% | viability at 25 µM [24]: 80.2% | viability at 100 µM [24]: 65.4% | IC50 ([24]; read-out: In vitro cytotoxicity (IC50) LOX IMVI (µM ± SEM)): > 150 µM | inhibition at 10 µM [25]: 42% | Growth Inhibition (%) ([25]; Renal Cancer UO-31): 41.1% | inhibition at 10 µM [26]: 6% | inhibition at 10 µM [27]: < 0% | inhibition at 10 µM [28]: 13.3% | inhibition at 10 µM [29]: 8.88% | Growth Inhibition (%) [29]: 8.9% | inhibition at 10 µM [30]: 1%

COc1ccc(C=C2SC(=O)N(CCCC(=O)N3CCN(c4cc5c(cc4F)c(=O)c(C(=O)O)cn5C4CC4)CC3)C2=O)cc1 [3e, 1-cyclopropyl-6-fluoro-7-[4-[4-[5-[(4-methoxyphenyl)methylene]-2,4-dioxo-thiazolidin-3-yl]butanoyl]piperazin-1-yl]-4-oxoquinoline-3-carboxylic acid]
inhibition at 10 µM [1]: < 0% | inhibition at 10 µM [2]: 4.3% | inhibition at 10 µM [3]: 7.9% | inhibition at 10 µM [4]: 6% | inhibition at 10 µM [5]: 0.6% | MIC [6]: > 20 µM | inhibition at 10 µM [7]: 12.4% | inhibition at 10 µM [31]: 25.7% | viability at 0.4 µM [8]: 102% | viability at 1.6 µM [8]: 91.7% | viability at 25 µM [8]: 69.4% | viability at 100 µM [8]: 56.2% | inhibition at 10 µM [9]: < 0% | inhibition at 10 µM [10]: < 0% | inhibition at 10 µM [11]: 19.7% | inhibition at 10 µM [12]: 5.5% | MIC [13, 33]: 1.94 to 2.6 µM (≈ 1.23 to 1.65 µg/mL) | MIC ([13]; Gram –ve strain): 1.94 µM (≈ 1.23 µg/mL) | inhibition at 10 µM [14]: 3.9% | inhibition at 10 µM [15]: 0.4% | inhibition at 10 µM [16]: < 0% | inhibition at 10 µM [17]: 5.3% | inhibition at 10 µM [18]: < 0% | inhibition at 10 µM [32]: 2.4% | inhibition at 10 µM [19]: 0% | inhibition at 10 µM [20]: < 0% | inhibition at 10 µM [21]: 1.2% | inhibition at 10 µM [22]: < 0% | inhibition at 10 µM [23]: < 0% | viability at 0.4 µM [24]: 76.7% | viability at 1.6 µM [24]: 67.7% | viability at 25 µM [24]: 52% | viability at 100 µM [24]: 47.4% | inhibition at 10 µM [25]: 18.5% | inhibition at 10 µM [26]: 6.5% | inhibition at 10 µM [27]: 2.9% | inhibition at 10 µM [28]: 2.3% | inhibition at 10 µM [29]: 42.5% | inhibition at 10 µM [30]: 10.3%
